Values joined by “and” are separate entries in the source; they are usually repeats but may differ in a detail not shown here. Identical values can stand only once. Active and inactive are the calls of the source.
Key:
[1] = test system: H4; experiment: Luminescence Cell-Based Dose Response HTS to Identify Activators of 5'UTR Stem-Loop Driven Prion Protein mRNA Translation in H4 Neuroglioblastoma Cells. [Related pubchem assays: 1829 (Project Summary), 1814 (Primary HTS)]; assay type: functional; conditions: Homo sapiens
[2] = target: T1, High affinity choline transporter 1 (Homo sapiens, UniProt Q9GZV3); experiment: CHT inhibitors, dose response, cell-based, 5-point CRC, membrane potential dye (AID 504840); assay type: functional
T1 sequence (Q9GZV3 whole entry): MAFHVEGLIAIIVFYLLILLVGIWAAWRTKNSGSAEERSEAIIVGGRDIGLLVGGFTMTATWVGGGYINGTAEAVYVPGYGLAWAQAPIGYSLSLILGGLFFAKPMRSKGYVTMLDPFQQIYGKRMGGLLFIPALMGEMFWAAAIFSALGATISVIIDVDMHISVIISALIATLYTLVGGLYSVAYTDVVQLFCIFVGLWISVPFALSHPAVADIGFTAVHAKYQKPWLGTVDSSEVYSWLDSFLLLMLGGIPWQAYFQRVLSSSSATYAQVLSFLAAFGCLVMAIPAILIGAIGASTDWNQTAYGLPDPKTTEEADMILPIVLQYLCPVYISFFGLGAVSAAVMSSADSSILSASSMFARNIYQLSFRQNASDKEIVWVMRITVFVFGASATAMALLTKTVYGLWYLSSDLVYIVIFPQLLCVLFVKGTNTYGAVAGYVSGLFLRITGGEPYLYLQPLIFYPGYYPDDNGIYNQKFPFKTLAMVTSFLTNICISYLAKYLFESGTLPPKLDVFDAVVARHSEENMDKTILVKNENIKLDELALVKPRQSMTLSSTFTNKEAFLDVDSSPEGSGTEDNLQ

[3] = Luminescence Cell-Based Dose Confirmation HTS to Identify Activators of 5'UTR Stem-Loop Driven Alpha-Synuclein mRNA Translation in H4 Neuroglioblastoma Cells. [Related pubchem assays: 1829 (Project Summary), 1814 (Primary HTS)]; assay type: functional
[4] = Luminescence Cell-Based Dose Response HTS to Identify Activators of Luciferase Translation or Activity in H4 […] Cells. [Related pubchem assays: 1829 (Project Summary), 1814 (Primary HTS)]; assay type: functional
[5] = target: T1, High affinity choline transporter 1; experiment: CHT inhibitors, dose response, cell-based, 10-point CRC, membrane potential dye (AID 588401); assay type: functional;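 note: membrane potential dye fluorescence of choline-evoked depolarization via CHT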
[6] = target: T2, DNA dC->dU-editing enzyme APOBEC-3A (Homo sapiens, UniProt P31941); experiment: APOBEC3A DNA deaminase inhibitors, dose response, biochemical (AID 504722); assay type: functional
[7] = target: T2, DNA dC->dU-editing enzyme APOBEC-3A; experiment: SAR analysis of small molecule inhibitors of APOBEC3A DNA Deaminase via a fluorescence-based single-stranded DNA deaminase assay.; assay type: functional; conditions: read-out: IC50_Mean
[8] = target: T3, DNA dC->dU-editing enzyme APOBEC-3G (Homo sapiens, UniProt Q9HC16); experiment: Dose Response confirmation of small molecule APOBEC3G DNA Deaminase Inhibitors via a fluorescence-based single-stranded DNA deaminase assay. [Related pubchem assays (depositor defined):AID493012, AID493028]; assay type: functional
[9] = target: T3, DNA dC->dU-editing enzyme APOBEC-3G; experiment: SAR analysis of small molecule inhibitors of APOBEC3G DNA Deaminase via a fluorescence-based single-stranded DNA deaminase assay - Set 2.; assay type: functional; conditions: read-out: IC50_Mean
[10] = target: T3, DNA dC->dU-editing enzyme APOBEC-3G; experiment: APOBEC3G deaminase inhibitors, SAR follow-up, biochemical, fluorescence, single-stranded DNA substrate (AID 602136); assay type: functional; conditions: read-out: IC50_Mean
[11] = target: T2, DNA dC->dU-editing enzyme APOBEC-3A; experiment: SAR analysis of small molecule inhibitors of APOBEC3A DNA Deaminase via a fluorescence-based single-stranded DNA deaminase assay - Set 2.; assay type: functional; conditions: read-out: IC50_Mean
[12] = target: T4, Heat shock factor protein 1 (Mus musculus, UniProt P38532); experiment: inhibition of MG132-induced HSE-luciferase signal, confirmation, cell-based, NIH3T3, luminescence, dose retest (AID 2382); assay type: functional;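 note: NIH3T3 fibroblasts with HSF1-driven luciferase reporter stressed by proteasome inhibitor MG132; luminescence from HSF1-driven luciferase expression after 8 hours of MG132 stress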
T4 sequence (P38532 whole entry): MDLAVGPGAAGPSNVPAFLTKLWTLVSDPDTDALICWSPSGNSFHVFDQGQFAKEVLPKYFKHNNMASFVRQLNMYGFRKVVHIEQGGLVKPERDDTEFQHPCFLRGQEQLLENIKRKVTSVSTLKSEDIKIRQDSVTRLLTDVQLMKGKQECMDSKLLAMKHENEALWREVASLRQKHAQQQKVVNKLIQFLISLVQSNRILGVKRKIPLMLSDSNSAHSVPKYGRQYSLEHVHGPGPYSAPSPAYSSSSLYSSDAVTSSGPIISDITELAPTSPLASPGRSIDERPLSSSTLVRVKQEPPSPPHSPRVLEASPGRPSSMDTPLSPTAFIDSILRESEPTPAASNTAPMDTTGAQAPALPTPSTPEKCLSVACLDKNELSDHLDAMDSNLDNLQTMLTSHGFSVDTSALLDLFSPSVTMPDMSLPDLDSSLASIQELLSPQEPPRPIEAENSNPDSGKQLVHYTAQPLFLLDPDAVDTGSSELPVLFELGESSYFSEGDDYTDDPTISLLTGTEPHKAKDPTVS

[13] = target: Melanocortin receptor 4 (Homo sapiens, UniProt P32245); assay type: functional, cell-based;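 note: Cell-based assay with luminescence read-out, confirmatory dose-response testing for agonist activity of biased ligands at MC4R; human U2OS cells with tagged receptor and beta-arrestin; potency of agonists that increase receptor coupling to beta-arrestin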
[14] = target: T2, DNA dC->dU-editing enzyme APOBEC-3A; experiment: Dose Response confirmation of small molecule APOBEC3A DNA Deaminase Inhibitors via a fluorescence-based single-stranded DNA deaminase assay. [Related pubchem assays (depositor defined):AID493011, AID493024]; assay type: functional
[15] = target: T3, DNA dC->dU-editing enzyme APOBEC-3G; assay type: functional
[16] = target: T5, Carboxy-terminal domain RNA polymerase II polypeptide A small phosphatase 1 (Homo sapiens, UniProt Q9GZU7); experiment: inhibitors of CTDSP1, concentration-response testing, biochemical assay, absorbance-based, actives from ultra-high-throughput screening (AID 540297); assay type: functional
T5 sequence (Q9GZU7 whole entry): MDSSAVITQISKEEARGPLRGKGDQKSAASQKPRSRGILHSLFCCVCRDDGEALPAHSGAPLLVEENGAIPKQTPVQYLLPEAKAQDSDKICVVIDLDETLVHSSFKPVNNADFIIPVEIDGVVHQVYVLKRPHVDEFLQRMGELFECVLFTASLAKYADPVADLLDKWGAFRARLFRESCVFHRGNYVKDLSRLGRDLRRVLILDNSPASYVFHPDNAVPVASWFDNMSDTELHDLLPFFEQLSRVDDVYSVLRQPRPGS

[17] = target: DNA (cytosine-5)-methyltransferase 1 (Homo sapiens, UniProt P26358); experiment: DNMT1 methyltransferase inhibitors, confirmation, biochemical, fluorescent molecular beacon (AID 602386); assay type: functional
[18] = target: T6, Rac GTPase-activating protein 1 (Homo sapiens, UniProt Q9H0H5); experiment: MgcRacGAP GTPase-activating activity inhibitors, confirmation, biochemical, ADP Hunter fluorescence, primary and confirmatory (AID 624330); assay type: functional
T6 sequence (Q9H0H5 whole entry): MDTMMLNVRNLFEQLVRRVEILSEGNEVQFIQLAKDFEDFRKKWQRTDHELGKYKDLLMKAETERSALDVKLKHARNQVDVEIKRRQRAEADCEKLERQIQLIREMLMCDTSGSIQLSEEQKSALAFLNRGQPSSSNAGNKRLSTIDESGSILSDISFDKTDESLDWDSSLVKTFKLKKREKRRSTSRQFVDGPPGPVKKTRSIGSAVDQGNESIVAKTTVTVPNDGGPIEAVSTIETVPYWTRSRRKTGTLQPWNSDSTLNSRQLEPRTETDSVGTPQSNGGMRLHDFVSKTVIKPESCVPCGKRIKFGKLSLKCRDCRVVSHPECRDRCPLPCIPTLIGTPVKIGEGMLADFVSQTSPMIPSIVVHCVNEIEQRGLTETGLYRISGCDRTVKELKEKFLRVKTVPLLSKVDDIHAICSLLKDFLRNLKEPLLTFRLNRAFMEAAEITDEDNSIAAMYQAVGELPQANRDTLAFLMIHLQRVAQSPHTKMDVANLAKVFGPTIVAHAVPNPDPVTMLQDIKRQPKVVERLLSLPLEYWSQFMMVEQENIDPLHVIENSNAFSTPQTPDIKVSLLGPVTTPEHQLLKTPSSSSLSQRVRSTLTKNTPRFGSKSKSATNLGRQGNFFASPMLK

[19] = target: T7, Apoptotic protease-activating factor 1 (Homo sapiens, UniProt O14727); experiment: SAR analysis of small molecule Activators of Apaf-1 in a Fluorescent assay.; assay type: functional; conditions: read-out: EC50_Mean;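 note: caspase-3 cleavage of fluorogenic Rh110 DEVD substrate downstream of apoptosome activation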
T7 sequence (O14727 whole entry): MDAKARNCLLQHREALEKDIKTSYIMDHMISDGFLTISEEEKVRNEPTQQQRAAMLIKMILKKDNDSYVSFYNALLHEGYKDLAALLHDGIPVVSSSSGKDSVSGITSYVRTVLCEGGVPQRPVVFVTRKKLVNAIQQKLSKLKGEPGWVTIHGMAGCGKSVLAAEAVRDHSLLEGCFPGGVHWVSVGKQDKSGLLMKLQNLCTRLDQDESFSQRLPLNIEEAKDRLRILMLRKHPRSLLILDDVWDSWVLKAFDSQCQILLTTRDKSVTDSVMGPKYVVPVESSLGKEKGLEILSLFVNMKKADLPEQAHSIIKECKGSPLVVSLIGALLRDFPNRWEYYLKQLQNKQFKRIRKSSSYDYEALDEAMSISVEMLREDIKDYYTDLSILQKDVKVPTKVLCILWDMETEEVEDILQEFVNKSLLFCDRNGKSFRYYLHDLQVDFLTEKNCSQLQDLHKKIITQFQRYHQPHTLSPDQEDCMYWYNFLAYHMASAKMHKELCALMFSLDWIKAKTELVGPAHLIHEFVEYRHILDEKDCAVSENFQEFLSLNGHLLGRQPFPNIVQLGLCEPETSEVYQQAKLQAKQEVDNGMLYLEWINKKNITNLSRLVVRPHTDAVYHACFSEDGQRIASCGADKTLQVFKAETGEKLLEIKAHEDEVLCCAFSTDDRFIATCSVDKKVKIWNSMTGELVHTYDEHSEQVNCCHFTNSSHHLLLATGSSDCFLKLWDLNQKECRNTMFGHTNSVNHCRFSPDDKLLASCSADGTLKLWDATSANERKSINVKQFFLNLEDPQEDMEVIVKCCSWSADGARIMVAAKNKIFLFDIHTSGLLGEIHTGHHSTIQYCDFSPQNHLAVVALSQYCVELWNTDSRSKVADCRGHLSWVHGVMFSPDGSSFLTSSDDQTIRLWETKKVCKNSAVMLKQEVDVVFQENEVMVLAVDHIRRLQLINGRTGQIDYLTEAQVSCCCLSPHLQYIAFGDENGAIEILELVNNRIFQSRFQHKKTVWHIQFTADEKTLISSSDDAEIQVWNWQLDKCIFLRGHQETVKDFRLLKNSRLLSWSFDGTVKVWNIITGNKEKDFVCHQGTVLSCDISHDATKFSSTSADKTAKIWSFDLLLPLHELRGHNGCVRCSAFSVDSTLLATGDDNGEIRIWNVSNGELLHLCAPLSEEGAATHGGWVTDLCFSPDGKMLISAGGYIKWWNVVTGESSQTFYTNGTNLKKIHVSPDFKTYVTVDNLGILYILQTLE

T3 sequence (Q9HC16 whole entry): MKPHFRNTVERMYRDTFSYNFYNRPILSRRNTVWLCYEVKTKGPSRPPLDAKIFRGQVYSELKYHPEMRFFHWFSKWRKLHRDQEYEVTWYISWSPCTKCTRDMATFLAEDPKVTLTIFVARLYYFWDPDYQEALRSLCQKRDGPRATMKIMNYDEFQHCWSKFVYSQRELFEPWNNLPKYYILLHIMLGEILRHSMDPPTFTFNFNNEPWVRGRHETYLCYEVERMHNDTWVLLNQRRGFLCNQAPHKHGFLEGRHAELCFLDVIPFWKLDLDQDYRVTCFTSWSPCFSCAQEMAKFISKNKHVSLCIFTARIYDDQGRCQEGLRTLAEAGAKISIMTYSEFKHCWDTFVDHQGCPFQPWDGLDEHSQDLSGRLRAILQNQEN
T2 sequence (P31941 whole entry): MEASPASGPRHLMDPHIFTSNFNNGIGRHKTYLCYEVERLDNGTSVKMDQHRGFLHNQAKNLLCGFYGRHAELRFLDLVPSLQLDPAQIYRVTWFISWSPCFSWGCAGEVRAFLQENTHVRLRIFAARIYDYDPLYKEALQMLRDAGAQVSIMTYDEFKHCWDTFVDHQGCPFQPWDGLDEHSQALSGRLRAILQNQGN
Sequence of Melanocortin receptor 4 (P32245 whole entry): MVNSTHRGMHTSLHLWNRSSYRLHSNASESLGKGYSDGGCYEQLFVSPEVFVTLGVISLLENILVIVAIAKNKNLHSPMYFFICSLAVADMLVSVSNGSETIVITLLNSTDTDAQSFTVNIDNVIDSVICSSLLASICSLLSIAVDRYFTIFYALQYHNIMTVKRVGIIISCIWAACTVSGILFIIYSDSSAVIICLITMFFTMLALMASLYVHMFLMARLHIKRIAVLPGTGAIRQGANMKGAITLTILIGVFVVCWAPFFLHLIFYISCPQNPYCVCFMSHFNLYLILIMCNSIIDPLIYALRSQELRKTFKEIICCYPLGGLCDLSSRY
Sequence of DNA (cytosine-5)-methyltransferase 1 (P26358 whole entry): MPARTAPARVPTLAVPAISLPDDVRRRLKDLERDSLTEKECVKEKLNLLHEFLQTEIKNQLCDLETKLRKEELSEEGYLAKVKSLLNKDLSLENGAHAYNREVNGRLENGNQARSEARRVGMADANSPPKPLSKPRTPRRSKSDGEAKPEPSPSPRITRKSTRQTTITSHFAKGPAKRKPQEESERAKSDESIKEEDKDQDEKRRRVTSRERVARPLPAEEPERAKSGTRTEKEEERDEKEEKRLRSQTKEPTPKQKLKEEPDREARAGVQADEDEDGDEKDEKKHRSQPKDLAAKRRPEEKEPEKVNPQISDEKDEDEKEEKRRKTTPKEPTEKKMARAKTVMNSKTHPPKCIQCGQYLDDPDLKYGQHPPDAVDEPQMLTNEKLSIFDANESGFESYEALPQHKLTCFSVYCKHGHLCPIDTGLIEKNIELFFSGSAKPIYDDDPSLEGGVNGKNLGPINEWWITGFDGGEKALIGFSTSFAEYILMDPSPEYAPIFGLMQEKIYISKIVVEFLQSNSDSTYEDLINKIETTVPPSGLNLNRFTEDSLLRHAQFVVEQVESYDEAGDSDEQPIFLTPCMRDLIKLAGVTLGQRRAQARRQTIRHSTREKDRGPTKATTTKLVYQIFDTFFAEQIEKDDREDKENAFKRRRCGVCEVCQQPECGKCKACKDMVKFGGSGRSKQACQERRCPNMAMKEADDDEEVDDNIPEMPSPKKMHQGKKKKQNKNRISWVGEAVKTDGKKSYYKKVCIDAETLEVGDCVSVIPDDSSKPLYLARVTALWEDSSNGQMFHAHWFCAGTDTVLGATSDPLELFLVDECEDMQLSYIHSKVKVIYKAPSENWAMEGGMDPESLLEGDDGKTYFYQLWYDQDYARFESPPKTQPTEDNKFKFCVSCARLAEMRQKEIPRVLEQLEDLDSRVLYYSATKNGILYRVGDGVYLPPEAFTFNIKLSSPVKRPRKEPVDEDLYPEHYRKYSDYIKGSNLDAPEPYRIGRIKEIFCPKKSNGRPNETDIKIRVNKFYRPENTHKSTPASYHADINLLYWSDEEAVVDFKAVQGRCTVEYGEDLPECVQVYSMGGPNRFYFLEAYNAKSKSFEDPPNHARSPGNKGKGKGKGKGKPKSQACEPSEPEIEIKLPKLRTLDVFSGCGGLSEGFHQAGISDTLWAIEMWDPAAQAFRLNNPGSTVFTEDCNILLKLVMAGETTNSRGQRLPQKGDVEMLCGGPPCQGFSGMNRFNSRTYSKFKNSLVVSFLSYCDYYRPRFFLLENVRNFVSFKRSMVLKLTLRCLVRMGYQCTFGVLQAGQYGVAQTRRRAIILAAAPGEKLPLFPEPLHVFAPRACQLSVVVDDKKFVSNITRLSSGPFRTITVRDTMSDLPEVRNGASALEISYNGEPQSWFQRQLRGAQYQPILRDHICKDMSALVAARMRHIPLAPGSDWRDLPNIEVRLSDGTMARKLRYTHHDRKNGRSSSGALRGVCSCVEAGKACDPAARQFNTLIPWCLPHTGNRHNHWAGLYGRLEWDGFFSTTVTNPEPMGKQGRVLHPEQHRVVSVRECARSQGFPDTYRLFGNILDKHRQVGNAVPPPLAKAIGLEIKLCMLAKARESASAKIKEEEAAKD

O=C1NN(c2ccccc2)C(=O)/C1=C/c1coc2ccccc2c1=O
EC50 [1]: 13.4 µM (active)
IC50 [2]: 5.3 µM (active)
EC50 [3]: 14.5 µM (active)
EC50 [4]: 44.7 µM (active)
IC50 [5]: 1.27 µM (active)

Nn1c(-c2cccc(Br)c2)n[nH]c1=S
IC50 [6]: > 100 µM (inactive)
IC50 [7]: > 99 µM (inactive)
IC50 [8]: 1.45 µM (active)
IC50 [9]: 539 nM (active)
IC50 [10]: 0.55 µM (active)
IC50 [11]: > 99 µM (inactive)
EC50 [12]: 108 µM (active)

Cc1ccc(NC(=O)c2ccccc2OCC(=O)c2ccc(F)cc2)cc1
EC50 [13]: > 89.2 µM (inactive)

CCn1ncc(-c2ccnc3cc(C(=O)O)nn23)c1C
IC50 [14]: 3.82 µM (active)
IC50 [7]: 10.7 µM (inactive)
IC50 [15]: > 100 µM (inactive)
IC50 [9]: 93 µM (inactive) and 69.6 µM (inactive)
IC50 [10]: > 99 µM (inactive)
IC50 [11]: 16.4 µM (inactive) and 24.7 µM (inactive)

C=CCNc1nc(SC)nc2ccsc12
IC50 [2]: 1.73 µM (active)
IC50 [5]: 0.891 µM (active)

CCc1ccc(/C(C)=N/NC(=O)CNC(=O)/C=C/c2ccco2)cc1
IC50 [16]: 0.844 µM (active)
IC50 [17]: 6.95 µM (active)
IC50 [18]: 106 µM (active)

COc1ccc(OC)c(NC(=O)CC(C)S(=O)(=O)c2ccc3c(c2)CCN3C(C)=O)c1 (stereo unspecified)
EC50 [19]: > 100 µM (inactive)

COC(=O)[C@@H]1COC(c2ccccc2C(F)(F)F)=N1
EC50 [19]: > 100 µM (inactive)

From ChEMBL document CHEMBL1201862, “PubChem BioAssay data set” (2004)
